From patent publication US7973034B2, “Amide, aryl sulfonamide, aryl urea, and α,β-diketone derived carboxylesterase inhibitors, and their methods of use” (priority 2003, dated 2011) come the findings set out here.

Usually Ki stands for a measure of affinity in units of concentration, obtained from inhibition or displacement. In general, inhibition refers to the relative decrease from the control value, in per cent.

Like-named read-outs stand apart in the source and are kept apart here.

The target in assay [1] is T1, human acetylcholinesterase (hAcChE) (Homo sapiens, UniProt P22303).
T1 construct: purchased Sigma Biochemicals (St. Louis, Mo.)
T1 sequence (P22303 32-614): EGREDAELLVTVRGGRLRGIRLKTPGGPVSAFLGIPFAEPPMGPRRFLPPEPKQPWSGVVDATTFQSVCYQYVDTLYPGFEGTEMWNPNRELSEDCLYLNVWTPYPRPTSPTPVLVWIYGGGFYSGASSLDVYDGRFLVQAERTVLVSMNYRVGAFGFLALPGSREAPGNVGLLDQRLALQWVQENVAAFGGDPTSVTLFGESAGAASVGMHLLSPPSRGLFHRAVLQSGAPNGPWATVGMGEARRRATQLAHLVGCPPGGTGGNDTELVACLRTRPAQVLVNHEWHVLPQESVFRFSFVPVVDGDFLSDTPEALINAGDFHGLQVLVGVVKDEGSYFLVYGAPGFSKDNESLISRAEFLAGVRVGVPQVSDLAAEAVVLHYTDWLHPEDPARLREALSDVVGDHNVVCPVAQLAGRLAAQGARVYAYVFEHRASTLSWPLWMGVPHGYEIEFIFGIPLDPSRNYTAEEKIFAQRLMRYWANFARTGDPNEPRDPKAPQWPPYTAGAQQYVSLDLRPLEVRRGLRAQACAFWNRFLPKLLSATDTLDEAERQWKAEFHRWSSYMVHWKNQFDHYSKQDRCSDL
The assay is described as follows: biochemical. Format: biochemical. As to conditions: acetylthiocholine substrate; Table 5; read-out: Ki hAcChE. As to the method:
Data was transferred to GraphPad Prism software, and Ki values were calculated as described in the Example above.

Assay [2] concerns the target human butyrylcholinesterase (hBuChE) (Homo sapiens, UniProt P06276). Description: biochemical.
For assay [3], the target named is T2, hiCE (Homo sapiens, UniProt O00748).
T2 sequence (O00748 27-559): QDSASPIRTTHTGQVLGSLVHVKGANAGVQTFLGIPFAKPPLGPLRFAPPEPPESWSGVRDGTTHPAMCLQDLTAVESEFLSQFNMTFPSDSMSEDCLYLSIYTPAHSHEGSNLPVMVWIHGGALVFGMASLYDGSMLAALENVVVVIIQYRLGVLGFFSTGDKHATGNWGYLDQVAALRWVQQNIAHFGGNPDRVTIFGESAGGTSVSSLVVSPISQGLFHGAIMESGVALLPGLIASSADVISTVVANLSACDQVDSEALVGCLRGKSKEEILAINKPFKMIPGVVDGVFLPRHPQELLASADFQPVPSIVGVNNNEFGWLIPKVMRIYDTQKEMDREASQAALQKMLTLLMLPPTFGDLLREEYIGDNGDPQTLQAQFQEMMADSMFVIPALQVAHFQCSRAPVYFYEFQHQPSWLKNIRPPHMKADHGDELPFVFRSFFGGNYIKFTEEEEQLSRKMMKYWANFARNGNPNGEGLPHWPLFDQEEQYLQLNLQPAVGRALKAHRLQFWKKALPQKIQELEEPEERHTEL
The assay is described as follows: Inhibition of hiCE-mediated activation of CPT-11 (SN-38 by HPLC). Format: biochemical. As to the method: Since the sulphonamide compounds identified herein are competitive inhibitors of hiCE, their activity is dependant upon the substrate used. To access the ability of these compounds to inhibit the hiCE-mediated activation of CPT-11, Ki values were determined using CPT-11 as the substrate.
CPT-11 concentrations were fixed at […], and inhibitor concentrations varied from 1 nM to 10 μM. Following incubation for an hour at 37° C., the levels of SN-38 in the reaction mixture was determined by High Performance Liquid Chromatography (HPLC).

Assay [4] deals with T3, human small intestine carboxylesterase (hiCE) (Homo sapiens, UniProt O00748).
T3 sequence (O00748 27-559): T2 sequence (O00748 27-559)
The assay is described as follows: biochemical. Format: biochemical. As to conditions: for Ki / Ki (hCE1)/Ki (hiCE): o-NPA as substrate; for Ki: Table 5, read-out: Ki hiCE; for Ki (hCE1)/Ki (hiCE): selectivity ratio.

The target of assay [5] is T4, human intestinal carboxylesterase in U373MGhiCE cells (Homo sapiens, UniProt O00748).
T4 construct: expressed in transfected cells; host or cells: U373MG human glioma cells (U373MGhiCE)
T4 sequence (O00748 27-559): T2 sequence (O00748 27-559)
Description: Inhibition of intracellular carboxylesterase in U373MGhiCE cells. Format: cell-based. As to the method:
To monitor the ability of the compounds to cross the cell membrane and inhibit carboxylesterase activity intracellularly, an assay using human tumor cells expressing hiCE was devised. U373MGhiCE (a human glioma cell line transfected with a plasmid expressing hiCE) were plated in T25 flasks and allowed to grow to confluency (approximately 2-5×10^5 cells). Inhibitors were then added at a final concentration of […], and incubation allowed to continue for 1 hour. At this time, the cells were washed extensively with 5 ml of complete media and 2×5 ml of Hanks balanced salt solution, and cell extracts were prepared. Carboxylesterase activity was then determined using o-NPA as a substrate.
Table 8 sets forth the level of intracellular enzyme inhibition following incubation of human glioblastoma tumor cells expressing human intestinal carboxylesterase with 10 μM of each compound identified in Table 3.

Assay [6] has as its target T5, human liver carboxylesterase (hCE1) (Homo sapiens, UniProt P23141).
T5 sequence (P23141 18-567): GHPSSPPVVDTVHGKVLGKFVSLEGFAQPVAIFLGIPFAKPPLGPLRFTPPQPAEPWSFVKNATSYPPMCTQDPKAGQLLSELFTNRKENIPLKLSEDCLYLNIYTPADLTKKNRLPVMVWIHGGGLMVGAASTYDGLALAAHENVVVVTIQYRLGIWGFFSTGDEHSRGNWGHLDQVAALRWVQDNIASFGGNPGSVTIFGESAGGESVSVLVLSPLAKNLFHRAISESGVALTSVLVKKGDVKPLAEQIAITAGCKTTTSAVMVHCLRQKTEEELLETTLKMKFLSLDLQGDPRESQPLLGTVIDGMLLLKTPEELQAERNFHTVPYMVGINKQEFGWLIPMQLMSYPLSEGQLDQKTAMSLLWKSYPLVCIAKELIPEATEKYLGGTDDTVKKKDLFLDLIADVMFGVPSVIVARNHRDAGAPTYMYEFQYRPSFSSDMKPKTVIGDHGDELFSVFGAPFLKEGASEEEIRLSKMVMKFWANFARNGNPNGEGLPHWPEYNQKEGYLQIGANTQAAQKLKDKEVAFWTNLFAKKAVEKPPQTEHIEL
The assay is described as follows: biochemical. In kind it is biochemical. As to conditions: o-NPA as substrate; Table 5; read-out: Ki hCE1.

Assay [7] concerns the target T6, rabbit liver carboxylesterase (rCE) (Oryctolagus cuniculus, UniProt P12337).
T6 sequence (P12337 19-565): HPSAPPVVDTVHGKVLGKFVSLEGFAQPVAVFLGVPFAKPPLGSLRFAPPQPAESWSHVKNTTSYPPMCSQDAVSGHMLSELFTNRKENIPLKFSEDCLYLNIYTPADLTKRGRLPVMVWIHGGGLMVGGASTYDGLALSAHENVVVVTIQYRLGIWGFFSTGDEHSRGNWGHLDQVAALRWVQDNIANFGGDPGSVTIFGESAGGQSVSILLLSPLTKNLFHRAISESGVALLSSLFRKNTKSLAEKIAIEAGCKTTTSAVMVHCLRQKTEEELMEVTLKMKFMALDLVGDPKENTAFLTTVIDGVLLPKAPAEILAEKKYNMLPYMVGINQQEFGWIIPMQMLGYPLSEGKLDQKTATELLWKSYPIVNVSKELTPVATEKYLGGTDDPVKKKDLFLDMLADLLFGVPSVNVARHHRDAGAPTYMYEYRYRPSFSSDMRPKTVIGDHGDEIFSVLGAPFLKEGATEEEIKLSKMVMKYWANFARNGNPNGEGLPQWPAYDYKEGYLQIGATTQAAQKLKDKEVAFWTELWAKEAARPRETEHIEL
Description: biochemical. Format: biochemical. As to conditions: o-NPA as substrate; Table 5; read-out: Ki rCE.

Where [8] appears, read: CPT-11 as substrate (100 μm), 1 hour at 37° C., read-out: Ki hiCE.

Sequence of human butyrylcholinesterase (hBuChE) (P06276 29-602): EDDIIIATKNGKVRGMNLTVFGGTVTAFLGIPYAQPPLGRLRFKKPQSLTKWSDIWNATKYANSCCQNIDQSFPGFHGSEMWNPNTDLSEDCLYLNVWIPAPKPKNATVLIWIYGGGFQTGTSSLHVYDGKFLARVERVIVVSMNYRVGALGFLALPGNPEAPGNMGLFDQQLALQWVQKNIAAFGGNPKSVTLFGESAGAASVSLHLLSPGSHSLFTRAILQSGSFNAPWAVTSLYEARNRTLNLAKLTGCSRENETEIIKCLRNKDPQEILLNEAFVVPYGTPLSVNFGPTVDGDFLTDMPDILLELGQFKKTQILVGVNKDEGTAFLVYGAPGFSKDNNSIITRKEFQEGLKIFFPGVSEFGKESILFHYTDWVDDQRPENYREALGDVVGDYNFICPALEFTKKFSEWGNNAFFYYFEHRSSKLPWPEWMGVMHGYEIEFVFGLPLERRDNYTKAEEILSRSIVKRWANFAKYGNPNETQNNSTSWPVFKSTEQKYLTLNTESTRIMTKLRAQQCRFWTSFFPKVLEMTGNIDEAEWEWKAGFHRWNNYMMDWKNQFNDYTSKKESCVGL

With `O=S(=O)(Nc1ccc(Oc2ccccc2)cc1)c1ccc(Br)cc1` [Compound 46, 4-bromo-N-(4-phenoxyphenyl)benzenesulfonamide], the inhibition constant Ki is more than 100 µM in assay [1]; more than 100 µM in assay [2]; more than 100 µM in assay [3] (setting [8]); 0.165 ± 0.033 µM in assay [4]; more than 100 µM in assay [6]; 0.319 ± 0.037 µM in assay [7]. For the same compound, the “Ki (hCE1)/Ki (hiCE)” value in assay [4] is more than 600. Further, the inhibition at 10 µM in assay [5] is 0%.
In the case of `O=S(=O)(Nc1c(F)c(F)c(NS(=O)(=O)c2ccc(Cl)cc2)c(F)c1F)c1ccc(Cl)cc1` [Compound 59], the Ki was more than 100 µM in assay [1]; more than 100 µM in assay [2]; 0.11 ± 0.023 µM in assay [3]; 0.0415 ± 0.0065 µM in assay [4]; more than 100 µM in assay [6]; 0.522 ± 0.144 µM in assay [7]. In addition, in assay [4], the “Ki (hCE1)/Ki (hiCE)” value is on record as >2,400. 10 µM produced 8.3% inhibition in assay [5].
For `O=S(=O)(Nc1ccc(NS(=O)(=O)c2ccc(Cl)cc2)c2ccccc12)c1ccc(Cl)cc1` [Compound 47, 4-chloro-N-(4-{[(4-chlorophenyl)sulfonyl]amino}-1-naphthyl)benzenesulfonamide], the Ki in assay [1] was more than 100 µM; in assay [2] it was more than 100 µM; in assay [3] (setting [8]) it was more than 100 µM; in assay [4] it was 0.194 ± 0.023 µM; in assay [6], more than 100 µM; in assay [7], more than 100 µM. The “Ki (hCE1)/Ki (hiCE)” value in assay [4] is more than 500. In assay [5], this compound showed an inhibition at 10 µM of 9.2%.
In the case of `O=S(=O)(Nc1ccc(NS(=O)(=O)c2ccccc2)cc1)c1ccccc1` [Compound 51, N-{4-[(phenylsulfonyl)amino]phenyl}benzene sulfonamide], the inhibition constant (Ki) in assay [1] was more than 100 µM; in assay [2], more than 100 µM; in assay [3] (setting [8]), 0.892 ± 0.067 µM; in assay [4] it was 1.06 µM; in assay [6], more than 100 µM; in assay [7], 1.55 µM. In assay [4], the “Ki (hCE1)/Ki (hiCE)” value is more than 90. Also, at 10 µM the inhibition in assay [5] was 5.5%.
With `Cc1cc(NS(=O)(=O)c2ccccc2)ccc1NS(=O)(=O)c1ccccc1` [Compound 49, N-{2-methyl-4-[(phenylsulfonyl)amino]phenyl}benzene sulfonamide], the inhibitory constant (Ki) was more than 100 µM in assay [1]; more than 100 µM in assay [2]; 0.238 ± 0.029 µM in assay [3]; 0.365 ± 0.087 µM in assay [4]; more than 100 µM in assay [6]; 3.23 µM in assay [7]. Also, in assay [4], the “Ki (hCE1)/Ki (hiCE)” value is given as more than 250. In assay [5], this compound showed an inhibition at 10 µM of 7.6%.
On to `CCOc1ccc(NS(=O)(=O)c2ccc(Cl)cc2)cc1` [Compound 52, 4-chloro-N-(4-ethoxyphenyl)benzenesulfonamide], for which the inhibition constant Ki in assay [1] was more than 100 µM; in assay [2], more than 100 µM; in assay [3], 3.22 µM; in assay [4], 1.31 µM; in assay [6], more than 100 µM; in assay [7], 2 µM. For the same compound, the “Ki (hCE1)/Ki (hiCE)” value in assay [4] was more than 75. For the same compound, in assay [5], at 10 µM the inhibition was 9.6%.
In the case of `Cc1cc(C)c(S(=O)(=O)Nc2ccccc2)cc1S(=O)(=O)Nc1ccccc1` [Compound 48, 4,6-dimethyl-N,N′-diphenylbenzene-1,3-disulfonamide], the inhibition constant (Ki) in assay [1] is more than 100 µM; in assay [2], more than 100 µM; in assay [3] (setting [8]), more than 100 µM; in assay [4] it was 0.218 ± 0.045 µM; in assay [6] it was more than 100 µM; in assay [7], more than 100 µM. Moreover, the “Ki (hCE1)/Ki (hiCE)” value in assay [4] was more than 450. Moreover, in assay [5], the inhibition at 10 µM stood at 8.9%.
For the compound `O=S(=O)(Nc1ccc(NS(=O)(=O)c2ccc(Cl)cc2)cc1)c1ccc(Cl)cc1` [Compound 45, 4-chloro-N-(4-{[(4-chlorophenyl)sulfonyl]amino}phenyl) benzenesulfonamide], the Ki was more than 100 µM in assay [1]; more than 100 µM in assay [2]; 0.141 ± 0.064 µM in assay [3]; 0.0533 ± 0.0055 µM in assay [4]; 13.7 µM in assay [6]; 1.2 µM in assay [7]. The “Ki (hCE1)/Ki (hiCE)” value in assay [4] was more than 250. Also, the inhibition at 10 µM in assay [5] turned out to be 7.5%.
For `CS(=O)(=O)Nc1ccc(SSc2ccc(NS(C)(=O)=O)cc2)cc1` [Compound 50, N-[4-({4-[(methylsulfonyl)amino]phenyl}dithio)phenyl]methanesulfonamide], the inhibition constant Ki in assay [1] was more than 100 µM; in assay [2], more than 100 µM; in assay [3] (setting [8]) it was more than 100 µM; in assay [4] it was 0.767 ± 0.285 µM; in assay [6], more than 100 µM; in assay [7] it was 0.739 ± 0.384 µM. Further, the “Ki (hCE1)/Ki (hiCE)” value in assay [4] was more than 125. This compound also gave an inhibition at 10 µM in assay [5] of 14.6%.
For the compound `O=S(=O)(Nc1c(Cl)c(Cl)c(NS(=O)(=O)c2ccccc2)c(Cl)c1Cl)c1ccccc1` [Compound 44, N-{2,3,5,6-tetrachloro-4-[(phenylsulfonyl)amino]phenyl}benzene sulfonamide], the inhibition constant (Ki) is more than 100 µM in assay [1]; more than 100 µM in assay [2]; more than 100 µM in assay [3] (setting [8]); 0.451 ± 0.039 µM in assay [4]; more than 100 µM in assay [6]; more than 100 µM in assay [7]. Moreover, the “change in apparent Vmax of hiCE” value in assay [4] (149 nM or 447 nM inhibitor) was “no change”. In addition, the “Ki (hCE1)/Ki (hiCE)” value in assay [4] is listed as more than 220. In assay [5], this compound had an inhibition at 10 µM of 0.6%.
